Assays:
Format in all cases: binding
[1] = molecular target: TEAD4 YAP50-100 (Homo sapiens (Human), UniProt Q15561); experiment: TEAD-YAP protein-protein interaction HTRF assay; settings: TEAD4 YAP50-100 HTRF combined EC50, 30 mins incubation with compound
Procedure: (§1) Purified His-tagged TEAD protein (YAP Binding Domain, amino acids 217-447) is pre-incubated with Europium labelled anti-His antibody tracer (Perkin Elmer Cat #AD0110). Small molecule Inhibitors are then incubated with the TEAD-Eu protein complex for 30 minutes or 4 hours to allow for binding to TEAD protein. Biotinylated YAP peptide for TEAD-YAP assays (AA's 50-100) or biotinylated TAZ peptide for TEAD-TAZ assays (AA's 13-57) that has been pre-incubated with streptavidin −xl665 acceptor (CIS-Bio Cat #610SAXAC) or is added to the compound-TEAD mix. The TEAD-YAP-inhibitor mixture is then incubated for 60 minutes at room temperature. All reactions are carried out in a polystyrene plate. After 60 minutes, the plate is read on a plate reader using TR-FRET mode with wavelengths of 665 nm/615 nm. If YAP or TAZ binds to TEAD as expected, a TR-FRET signal results from the proximity of YAP or TAZ and TEAD after binding. If an inhibitor such as peptide 17 (Selleckchem Cat #S8164) interferes with YAP-TEAD or TAZ-TEAD binding, the disruption of the YAP or TAZ:TEAD interaction results in a decrease in TR-FRET signal. The potency of compounds as YAP:TEAD or TAZ:TEAD protein-protein interaction (PPi) inhibitors is determined by an IC50 or EC50 value generated using a non-linear four parameter curve fit. The extent to which representative examples of the disclosed compounds are able to inhibit interaction between TEAD1, TEAD2, TEAD3 or TEAD4 and YAP truncated from amino acids 50-100 or TAZ truncated from amino acids 13-57 as measured by Homogeneous Time Resolved Fluorescence (HTRF) to generate EC50 and IC50 data.
(§2) Note that the “Compound Number” in Table 4 corresponds to the “Compound Number” in Table 1. […]

[2] = molecular target: TEAD2 YAP50-100 (Homo sapiens (Human), UniProt Q15562); experiment: TEAD-YAP protein-protein interaction HTRF assay; settings: TEAD2 YAP50-100 HTRF combined EC50, 30 mins incubation with compound
Chain of TEAD2 YAP50-100 (Q15562 217-447): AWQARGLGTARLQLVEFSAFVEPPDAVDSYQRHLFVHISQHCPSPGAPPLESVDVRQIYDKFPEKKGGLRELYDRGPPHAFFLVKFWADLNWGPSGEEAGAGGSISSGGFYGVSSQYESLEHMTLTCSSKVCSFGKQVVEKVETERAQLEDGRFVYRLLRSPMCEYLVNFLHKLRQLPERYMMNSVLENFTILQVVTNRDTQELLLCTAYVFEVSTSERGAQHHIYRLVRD
Procedure: as §1, §2

[3] = molecular target: TEAD3 YAP50-100 (Homo sapiens (Human), UniProt Q99594); experiment: TEAD-YAP protein-protein interaction HTRF assay; settings: TEAD3 YAP50-100 HTRF combined EC50, 30 mins incubation with compound
Chain of TEAD3 YAP50-100 (Q99594 218-435): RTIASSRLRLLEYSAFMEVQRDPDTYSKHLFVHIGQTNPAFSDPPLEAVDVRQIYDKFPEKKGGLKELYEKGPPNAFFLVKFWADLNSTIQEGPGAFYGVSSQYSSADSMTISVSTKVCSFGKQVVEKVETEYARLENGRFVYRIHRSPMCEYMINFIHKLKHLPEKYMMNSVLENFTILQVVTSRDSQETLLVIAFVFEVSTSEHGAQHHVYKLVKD
Procedure: as §1, §2

[4] = molecular target: TEAD1 YAP50-100 (Homo sapiens (Human), UniProt P28347); experiment: TEAD-YAP protein-protein interaction HTRF assay; settings: TEAD1 YAP50-100 HTRF combined EC50, 30 mins incubation with compound
Chain of TEAD1 YAP50-100 (P28347 209-426): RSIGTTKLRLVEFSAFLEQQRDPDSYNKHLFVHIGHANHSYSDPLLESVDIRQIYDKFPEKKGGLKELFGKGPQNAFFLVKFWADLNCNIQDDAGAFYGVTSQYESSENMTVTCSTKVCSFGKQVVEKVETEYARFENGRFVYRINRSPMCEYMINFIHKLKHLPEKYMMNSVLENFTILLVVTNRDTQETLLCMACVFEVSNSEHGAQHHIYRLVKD
Procedure: as §1, §2

[5] = molecular target: TEAD4 (Homo sapiens (Human), UniProt Q15561); experiment: TEAD lipid pocket TR-FRET (Lipid HTRF) probe competition assay; settings: 30 mins incubation with compound; read-out: Lipid HTRF TEAD4 IC50
Chain of TEAD4 (Q15561 whole entry, species assumed): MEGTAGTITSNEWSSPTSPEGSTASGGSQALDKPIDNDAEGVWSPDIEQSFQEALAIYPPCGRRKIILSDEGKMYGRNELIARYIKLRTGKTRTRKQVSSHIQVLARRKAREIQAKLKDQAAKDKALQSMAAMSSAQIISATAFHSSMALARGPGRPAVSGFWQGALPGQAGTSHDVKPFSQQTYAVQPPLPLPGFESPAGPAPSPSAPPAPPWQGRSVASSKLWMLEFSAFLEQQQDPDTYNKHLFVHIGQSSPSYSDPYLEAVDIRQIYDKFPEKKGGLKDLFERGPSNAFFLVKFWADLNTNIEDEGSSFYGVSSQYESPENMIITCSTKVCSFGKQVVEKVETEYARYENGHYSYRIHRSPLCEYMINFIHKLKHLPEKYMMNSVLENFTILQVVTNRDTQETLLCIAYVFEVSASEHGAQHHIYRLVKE
Procedure: (§3) His-tagged TEAD proteins are pre-incubated with TEAD project compounds for 30 minutes or 4 hours at room temperature. Biotinylated lipid pocket probes are then added to the TEAD/Compound mixture and incubated for 60 minutes at room temperature. The lipid pocket probe competes with the test compound for the TEAD lipid pocket until equilibrium is reached. After 60 minutes, Europium labelled anti-His (Perkin Elmer #ADO 110) and XL665 labelled streptavidin (CIS Bio 610SAXAC) are added to the TEAD/test compound/lipid pocket mixture and incubated for 30 minutes or 4 hours. […] If a TEAD lipid pocket binder such as binds and displaces the lipid pocket probe, the disruption of the TEAD:probe interaction results in a decrease in TR-FRET signal. The potency of compounds as TEAD lipid pocket binders is determined by IC50 value generated using a non-linear 4 parameter curve fit.
(§4) Note that the “Compound Number” in Table 2 and Table 3 corresponds to the “Compound Number” in Table 1.

[6] = molecular target: TEAD1 (Homo sapiens (Human), UniProt P28347); experiment: as above; settings: 30 mins incubation with compound; read-out: Lipid HTRF TEAD1 IC50
Chain of TEAD1 (P28347 whole entry, species assumed): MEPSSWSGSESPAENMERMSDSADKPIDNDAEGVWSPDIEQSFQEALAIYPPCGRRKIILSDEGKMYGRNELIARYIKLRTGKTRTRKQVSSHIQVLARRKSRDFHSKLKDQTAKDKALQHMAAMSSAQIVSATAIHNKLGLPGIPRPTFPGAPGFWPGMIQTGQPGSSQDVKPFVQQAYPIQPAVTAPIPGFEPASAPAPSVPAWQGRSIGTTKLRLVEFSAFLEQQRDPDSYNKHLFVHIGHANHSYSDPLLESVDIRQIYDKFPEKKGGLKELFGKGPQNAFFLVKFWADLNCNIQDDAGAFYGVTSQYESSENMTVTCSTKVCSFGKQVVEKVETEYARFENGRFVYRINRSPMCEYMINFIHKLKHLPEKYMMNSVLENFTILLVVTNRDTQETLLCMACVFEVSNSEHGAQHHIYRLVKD
Procedure: as §3, §4

[7] = molecular target: TEAD3 (Homo sapiens (Human), UniProt Q99594); experiment: as above; settings: 30 mins incubation with compound
Chain of TEAD3 (Q99594 whole entry, species assumed): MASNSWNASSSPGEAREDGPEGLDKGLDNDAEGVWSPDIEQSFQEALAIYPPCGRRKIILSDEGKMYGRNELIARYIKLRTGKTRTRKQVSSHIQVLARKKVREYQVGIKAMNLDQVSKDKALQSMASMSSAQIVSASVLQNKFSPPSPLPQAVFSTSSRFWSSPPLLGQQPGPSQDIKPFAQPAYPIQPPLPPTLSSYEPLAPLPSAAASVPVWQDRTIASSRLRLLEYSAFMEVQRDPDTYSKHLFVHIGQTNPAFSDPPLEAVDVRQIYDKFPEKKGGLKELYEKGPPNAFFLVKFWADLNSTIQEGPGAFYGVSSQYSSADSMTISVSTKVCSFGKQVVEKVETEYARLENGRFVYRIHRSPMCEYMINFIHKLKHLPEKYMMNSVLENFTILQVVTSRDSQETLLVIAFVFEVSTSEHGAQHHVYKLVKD
Procedure: as §3, §4

[8] = molecular target: TEAD2 (Homo sapiens (Human), UniProt Q15562); experiment: as above; settings: 30 mins incubation with compound; read-out: Lipid HTRF TEAD2 IC50
Chain of TEAD2 (Q15562 whole entry): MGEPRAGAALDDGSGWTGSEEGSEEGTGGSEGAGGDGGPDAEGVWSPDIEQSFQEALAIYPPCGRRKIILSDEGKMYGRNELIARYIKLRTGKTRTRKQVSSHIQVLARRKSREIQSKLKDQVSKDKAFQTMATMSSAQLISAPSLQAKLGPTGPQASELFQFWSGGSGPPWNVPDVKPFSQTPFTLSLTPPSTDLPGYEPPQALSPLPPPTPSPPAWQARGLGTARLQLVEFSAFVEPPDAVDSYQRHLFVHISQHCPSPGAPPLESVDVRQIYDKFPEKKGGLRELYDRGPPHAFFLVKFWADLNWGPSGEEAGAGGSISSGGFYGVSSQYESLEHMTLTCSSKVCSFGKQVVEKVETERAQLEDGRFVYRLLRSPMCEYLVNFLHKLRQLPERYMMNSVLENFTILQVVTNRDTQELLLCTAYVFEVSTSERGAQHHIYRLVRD
Procedure: as §3, §4

Chain of TEAD4 YAP50-100 (Q15561 217-434): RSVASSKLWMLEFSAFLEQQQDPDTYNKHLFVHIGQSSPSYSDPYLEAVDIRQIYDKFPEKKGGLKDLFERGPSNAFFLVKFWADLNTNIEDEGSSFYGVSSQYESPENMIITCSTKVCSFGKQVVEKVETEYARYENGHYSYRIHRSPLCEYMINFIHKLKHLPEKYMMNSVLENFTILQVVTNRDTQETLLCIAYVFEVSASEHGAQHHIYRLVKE

## C=C(CNc1cc(-c2ccc(C(C)C)cn2)c2c(c1C#N)CCO2)C(=O)O [Compound 47, 2-[[[4-cyano-7-(5-isopropyl-2-pyridyl)-2,3-dihydrobenzofuran-5-yl]amino]methyl]prop-2-enoic acid]
[1]
  EC50: 3400 nM
[2]
  EC50: 1900 nM
[3]
  EC50: > 50000 nM
[4]
  EC50: 1900 nM
[5]
  IC50: 1500 nM
[6]
  IC50: 2200 nM
[7]
  IC50: > 50000 nM
[8]
  IC50: 2700 nM

## C=C(CNc1cc(-c2ccc(C(C)C)cc2)c2c(c1CO)CCO2)C(=O)O [Compound 12, 2-[[[4-(hydroxymethyl)-7-(4-isopropylphenyl)-2,3-dihydrobenzofuran-5-yl]amino]methyl]prop-2-enoic acid]
[1]
  EC50: 750 nM
[2]
  EC50: 300 nM
[3]
  EC50: > 50000 nM
[4]
  EC50: 780 nM
[5]
  IC50: 470 nM
[6]
  IC50: 1500 nM
[7]
  IC50: 47000 nM
[8]
  IC50: 930 nM

## C=C(CNc1cc(-c2ccc(C(C)C)cc2)c2c(c1F)CCO2)C(=O)O [Compound 21, 2-[[[4-fluoro-7-(4-isopropylphenyl)-2,3-dihydrobenzofuran-5-yl]amino]methyl]prop-2-enoic acid]
[1]
  EC50: 30 nM
[2]
  EC50: < 10 nM
[3]
  EC50: > 50000 nM
[4]
  EC50: 40 nM
[5]
  IC50: 20 nM
[6]
  IC50: 60 nM
[7]
  IC50: 4000 nM
[8]
  IC50: 70 nM

## C=C(CNc1cc(-c2ccc(OC(F)(F)F)cc2)c2ncsc2c1C#N)C(N)=O [Compound 42, 2-[[[7-cyano-4-[4-(trifluoromethoxy)phenyl]-1,3-benzothiazol-6-yl]amino]methyl]prop-2-enamide]
[1]
  EC50: > 50000 nM
[2]
  EC50: > 50000 nM
[3]
  EC50: > 50000 nM
[4]
  EC50: > 50000 nM
[5]
  IC50: 260 nM
[6]
  IC50: 370 nM
[7]
  IC50: > 50000 nM
[8]
  IC50: 140 nM

## C=C(CNc1cc(-c2ccc(C(C)(F)F)cc2)c2ncsc2c1C#N)C(=O)O [Compound 24, 2-[[[7-cyano-4-[4-(1,1-difluoroethyl)phenyl]-1,3-benzothiazol-6-yl]amino]methyl]prop-2-enoic acid]
[1]
  EC50: > 50000 nM
[2]
  EC50: 260 nM
[3]
  EC50: 15000 nM
[4]
  EC50: 80 nM
[5]
  IC50: 370 nM
[6]
  IC50: 160 nM
[7]
  IC50: 20000 nM
[8]
  IC50: 740 nM

## C=C(CNc1cc(-c2ccc(C(C)C)cc2)c2c(c1CO)CCO2)C(=O)NO [Compound 14, 2-[[[4-(hydroxymethyl)-7-(4-isopropylphenyl)-2,3-dihydrobenzofuran-5-yl]amino]methyl]prop-2-enehydroxamic acid]
[1]
  EC50: 890 nM
[2]
  EC50: 70 nM
[3]
  EC50: 3400 nM
[4]
  EC50: 280 nM
[5]
  IC50: 420 nM
[6]
  IC50: 520 nM
[7]
  IC50: 2400 nM
[8]
  IC50: 120 nM

## C=C(CNc1cc(-c2ccc(C(C)C(F)(F)F)cc2)c2c(c1C#N)CCO2)C(=O)O (single isomer, unassigned) [Enantiomer C from Example 16, 2-(((4-cyano-7-(4-(1,1,1-trifluoropropan-2-yl)phenyl)-2,3-dihydrobenzofuran-5-yl)amino)methyl)acrylic acid]
[1]
  EC50: 10 nM
[2]
  EC50: 20 nM
[3]
  EC50: 5900 nM
[4]
  EC50: 10 nM
[5]
  IC50: 10 nM
[6]
  IC50: 20 nM
[7]
  IC50: 3000 nM
[8]
  IC50: 40 nM

## C=C(CNc1cc(-c2ccc(C(C)C)cc2)c2c(c1S(C)(=O)=O)CCO2)C(=O)O [Compound 50, 2-[[[7-(4-isopropylphenyl)-4-methylsulfonyl-2,3-dihydrobenzofuran-5-yl]amino]methyl]prop-2-enoic acid]
[1]
  EC50: 2000 nM
[2]
  EC50: 80 nM
[3]
  EC50: 17000 nM
[4]
  EC50: 530 nM
[5]
  IC50: 590 nM
[6]
  IC50: 740 nM
[7]
  IC50: 44500 nM
[8]
  IC50: 100 nM

## C=C(CNc1cc(-c2ccc(C(C)C)cc2)c2c(c1CO)CCO2)C(N)=O [Compound 13, 2-[[[4-(hydroxymethyl)-7-(4-isopropylphenyl)-2,3-dihydrobenzofuran-5-yl]amino]methyl]prop-2-enamide]
[1]
  EC50: 180 nM
[2]
  EC50: 40 nM
[3]
  EC50: 22000 nM
[4]
  EC50: 330 nM
[5]
  IC50: 180 nM
[6]
  IC50: 780 nM
[7]
  IC50: 11000 nM
[8]
  IC50: 220 nM

Source: patent publication US11787775B2, “Therapeutic compounds and methods of use” (priority 2020, dated 2023)
